Tests used:
[1] = biological target: T1, Thyroid hormone receptor alpha (Homo sapiens, UniProt P10827); test: Displacement of [125I]-L-3,5,3'-triiodothyronine from human TRalpha expressed in human Hela cell lysate measured after overnight incubation by competition binding assays; type: cell-free
T1 sequence (P10827 whole entry): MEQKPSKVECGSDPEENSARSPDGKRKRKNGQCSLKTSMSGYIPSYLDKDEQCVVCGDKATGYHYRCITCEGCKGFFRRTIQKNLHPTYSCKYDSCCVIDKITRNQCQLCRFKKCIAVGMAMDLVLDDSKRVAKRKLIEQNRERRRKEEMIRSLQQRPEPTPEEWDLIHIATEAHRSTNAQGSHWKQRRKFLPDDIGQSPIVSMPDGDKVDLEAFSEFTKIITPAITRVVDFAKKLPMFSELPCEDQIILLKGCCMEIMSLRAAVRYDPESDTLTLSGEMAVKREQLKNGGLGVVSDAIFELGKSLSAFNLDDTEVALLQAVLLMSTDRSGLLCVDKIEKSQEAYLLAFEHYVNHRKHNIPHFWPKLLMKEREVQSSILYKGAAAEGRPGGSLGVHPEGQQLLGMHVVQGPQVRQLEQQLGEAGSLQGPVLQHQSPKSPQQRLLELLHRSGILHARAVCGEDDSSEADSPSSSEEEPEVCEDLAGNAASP

[2] = biological target: T2, Thyroid hormone receptor beta (Homo sapiens, UniProt P10828); test: Displacement of [125I]-L-3,5,3'-triiodothyronine from human TRbeta expressed in human Hela cell lysate measured after overnight incubation by competition binding assays; type: cell-free
T2 sequence (P10828 whole entry): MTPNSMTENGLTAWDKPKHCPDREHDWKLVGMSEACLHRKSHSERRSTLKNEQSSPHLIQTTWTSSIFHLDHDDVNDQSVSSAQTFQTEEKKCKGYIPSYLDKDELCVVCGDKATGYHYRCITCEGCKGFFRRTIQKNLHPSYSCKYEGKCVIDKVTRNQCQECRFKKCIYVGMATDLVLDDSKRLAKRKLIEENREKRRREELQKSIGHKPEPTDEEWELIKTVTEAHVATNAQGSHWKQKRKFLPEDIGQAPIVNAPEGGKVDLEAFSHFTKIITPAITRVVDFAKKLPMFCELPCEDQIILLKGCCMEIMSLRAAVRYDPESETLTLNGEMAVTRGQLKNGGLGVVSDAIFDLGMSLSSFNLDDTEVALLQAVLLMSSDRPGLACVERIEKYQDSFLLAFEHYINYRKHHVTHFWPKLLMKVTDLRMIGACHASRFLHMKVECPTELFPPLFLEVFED

Rattus norvegicus [3] = test: Decrease in triglyceride level in fructose-fed Sprague-Dawley rat model of dyslipidemia at 0.1 mg/kg, po qd through oral gavage by size exclusion chromatography (Rvb =296 +/- 20 mg/dL); type: functional
Rattus norvegicus [4] = test: Decrease in triglyceride level in fructose-fed Sprague-Dawley rat model of dyslipidemia at 1 mg/kg, po qd through oral gavage by size exclusion chromatography (Rvb =296 +/- 20 mg/dL); type: functional
Rattus norvegicus [5] = test: Increase in HDL level in fructose-fed Sprague-Dawley rat model of dyslipidemia at 0.1 mg/kg, po qd through oral gavage by size exclusion chromatography relative to vehicle-treated control; type: functional
Rattus norvegicus [6] = test: Increase in HDL level in fructose-fed Sprague-Dawley rat model of dyslipidemia at 0.3 mg/kg, po qd through oral gavage by size exclusion chromatography relative to vehicle-treated control; type: functional
Rattus norvegicus [7] = test: Increase in HDL level in fructose-fed Sprague-Dawley rat model of dyslipidemia at 10 mg/kg, po qd through oral gavage by size exclusion chromatography relative to vehicle-treated control; type: functional
Rattus norvegicus [8] = test: Decrease in triglyceride level in fructose-fed Sprague-Dawley rat model of dyslipidemia at 0.3 mg/kg, po qd through oral gavage by size exclusion chromatography (Rvb =296 +/- 20 mg/dL); type: functional
Rattus norvegicus [9] = test: Toxicity in fructose-fed Sprague-Dawley rat model of dyslipidemia assessed as effect on food intake at 0.1 to 10 mg/kg, po qd through oral gavage; type: organism-based; design: dose 0.1-10 mg/kg, route oral; details: in vivo
Rattus norvegicus [10] = test: Increase in HDL level in fructose-fed Sprague-Dawley rat model of dyslipidemia at 3 mg/kg, po qd through oral gavage by size exclusion chromatography relative to vehicle-treated control; type: functional
Rattus norvegicus [11] = test: Decrease in triglyceride level in fructose-fed Sprague-Dawley rat model of dyslipidemia at 10 mg/kg, po qd through oral gavage by size exclusion chromatography (Rvb =296 +/- 20 mg/dL); type: functional
Rattus norvegicus [12] = test: Decrease in triglyceride level in fructose-fed Sprague-Dawley rat model of dyslipidemia at 3 mg/kg, po qd through oral gavage by size exclusion chromatography (Rvb =296 +/- 20 mg/dL); type: functional
Rattus norvegicus [13] = test: Increase in HDL level in fructose-fed Sprague-Dawley rat model of dyslipidemia at 1 mg/kg, po qd through oral gavage by size exclusion chromatography relative to vehicle-treated control; type: functional
[14] = biological target: T1, Thyroid hormone receptor alpha; test: Agonist activity at TRalpha (unknown origin) expressed in human HuH7 cells after 24 hrs by Gal4 CTF cell-based assay; design: species or system Huh-7
[15] = biological target: T2, Thyroid hormone receptor beta; test: Agonist activity at TRbeta (unknown origin) expressed in human HuH7 cells after 24 hrs by Gal4 CTF cell-based assay; design: species or system Huh-7

Row | SMILES | Ki [1] [nM] | Ki [2] [nM] | further results
1 | CC(C)c1cc(Cn2ccc3cc(OCC(=O)O)ccc32)ccc1O | 13.5 | 1.04 | 
2 | Cc1cc2cc(OCC(=O)O)ccc2n1Cc1ccc(O)c(C(C)C)c1 | 16.3 | 1.12 | 
3 | Cc1cn(Cc2ccc(O)c(C(C)C)c2)c2ccc(OCC(=O)O)cc12 | 7.74 | 0.38 | Activity (Rattus norvegicus [3]): 204 mg/dL; Activity (Rattus norvegicus [4]): 177 mg/dL; Activity (Rattus norvegicus [5]): 22%; Activity (Rattus norvegicus [6]): 39%; Activity (Rattus norvegicus [7]): 35%; Activity (Rattus norvegicus [8]): 214 mg/dL; Activity (Rattus norvegicus [9]): Non-toxic; Activity (Rattus norvegicus [10]): 42%; Activity (Rattus norvegicus [11]): 106 mg/dL; Activity (Rattus norvegicus [12]): 149 mg/dL; Activity (Rattus norvegicus [13]): 55%
4 | Cc1cc(OCC(=O)O)cc2ccn(Cc3ccc(O)c(C(C)C)c3)c12 | 1.09 | 0.26 | 
5 | CC(C)c1cc(Cn2ccc3cc(OCC(=O)O)cc(Cl)c32)ccc1O | 0.35 | 0.07 | 
6 | Cc1cc(OCC(=O)O)cc2cc(C)n(Cc3ccc(O)c(C(C)C)c3)c12 | 2.05 | 0.14 | 
7 | Cc1cc2cc(OCC(=O)O)cc(Cl)c2n1Cc1ccc(O)c(C(C)C)c1 | 0.38 | 0.04 | 
8 | Cc1cn(Cc2ccc(O)c(C(C)C)c2)c2c(C)cc(OCC(=O)O)cc12 | 2.77 | 0.18 | 
9 | Cc1cn(Cc2ccc(O)c(C(C)C)c2)c2c(Cl)cc(OCC(=O)O)cc12 | 0.51 | 0.09 | 
10 | Cc1cn(Cc2ccc(O)c(C(C)(C)C)c2)c2ccc(OCC(=O)O)cc12 | 9.98 | 0.3 | 
11 | Cc1cn(Cc2ccc(O)c(Cc3ccccc3)c2)c2ccc(OCC(=O)O)cc12 | 36.5 | 0.54 | EC50 [14]: 2470 nM; EC50 [15]: 406 nM
12 | Cc1cn(Cc2ccc(O)c(C3CCCC3)c2)c2ccc(OCC(=O)O)cc12 | 32.3 | 0.64 | 
13 | Cc1cn(Cc2ccc(O)c(CC3CCCCC3)c2)c2ccc(OCC(=O)O)cc12 | 46.6 | 1.11 | 
14 | Cc1cn(Cc2ccc(O)c(-c3ccccc3)c2)c2ccc(OCC(=O)O)cc12 | 89.9 | 3.14 | 
15 | Cc1cn(Cc2ccc(O)c(C3CCCCC3)c2)c2ccc(OCC(=O)O)cc12 | 200 | 8.04 | 
